This passage reports EC50 results from patent US9518000B2, “Bicyclo [2.2.1] acid GPR120 modulators” (BRISTOL-MYERS SQUIBB COMPANY, priority 2013, dated 2016).

By EC50 is commonly meant the concentration needed to bring the measured effect to its halfway point.

This test addresses human GPR120 (Homo sapiens (Human), UniProt Q5NUL3). Put plainly: GPR120 pERK AlphaScreen SureFire Assay (human GPR120 pERK assay). It is filed as cell-based. The settings on record: CHOA12 or CHO-K1 cells stably transfected with the short form of human GPR120 receptor; phosphorylated ERK; read-out: EC50 values measured in the human GPR120 pERK assay. The source says:
GPR120 activity was monitored by measuring phosphorylation of ERK (pERK), since G protein receptors are known to activate the ERK signaling cascade either directly and/or through recruitment of arrestin that serves as a scaffold for downstream signaling events.
GPR120 pERK AlphaScreen SureFire Assay
The human and mouse GPR120-mediated intracellular phosphorylated ERK assays were established using CHOA12 cells stably transfected with the short form of human or mouse GPR120 receptor. Cells were cultured in growth medium consisting of F-12 media (Invitrogen Cat. #11765) with 5% Charcoal/Dextran FBS (Invitrogen Cat. #12676-029), 500 μg/mL GENETICIN® (Life Technologies Cat. #10131-027) and 250 μg/mL Zeocin (Invitrogen Cat. #R250-01). Cells were cryo preserved at a concentration of 2×10^7 cells/mL, in 90% Charcoal/Dextran FBS and 10% DMSO, and frozen in liquid nitrogen at a low passage number.
For the pERK assay, 2×10^7 cells/mL cryopreserved human and mouse cells were thawed rapidly in a 37° C. water bath and added to a T-225 flask containing 50 mL growth medium. The flasks were placed in a tissue culture incubator overnight (37° C., 5% CO2). The next day, cells were harvested with trypsin (Gibco Cat. #25300-054), resuspended in serum-containing growth medium and counted using a Cellometer and volume adjusted to a concentration of 0.6×10^6 cells/mL. Cells were plated into 384-well clear bottom tissue culture plates (BD Cat. #353962) at 50 μL/well, for a density of 30,000 cells/well using a MULTIDROP® and incubated for 16-18 hours (overnight) at 37° C. with 5% CO2. The next day, cells were serum starved in 30 μL of F-12 media without any serum or antibiotics for 2 hours at 37° C.
Test compounds were 3-fold, 11-point serially diluted in DMSO in a REMP assay plate (Matrix Cat. #4307) by Tecan and 5 μL was transferred into an ECHO source plate (LabCyte Cat. #LC-0200). Cells were then stimulated with 50 nL of compound dilutions using ECHO liquid handler for 7 minutes at 37° C. Compounds ranged from final assay concentrations of 33.33 μM to 0.56 nM.
The media was then dumped and cells lysed with 20 μL of 1× Lysis buffer from the AlphaScreen SureFire Phospho-ERK 1/2 Kit (Perkin Elmer Cat. #6760617M). The lysis buffer was diluted 5-fold with water before use. The plate was agitated on a shaker for 10 minutes after which 2 μL was transferred into a 384-well white proxiplate (Perkin Elmer Cat. #6008289). The SureFire assay reagent mix was prepared by mixing 60 parts Reaction Buffer, 10 parts Activation Buffer, 1 part Donor Beads, 1 part Acceptor Beads (Perkin Elmer Cat. #TGRES10K). 3.5 μL/well of this reagent mix was manually added to the proxiplate with a multichannel pipettor. Plates were spun down at 1000 rpm for 2 minutes, followed by light-protected incubation at room temperature for 2 hours. The plates were read on the Alpha-technology compatible Envision multilabel plate reader using AlphaScreen protocol according to manufacturer's specifications. The agonist effect of compounds was expressed as 100×(average sample-average blank)/(average total−average blank) where sample is the luminescence activity in the presence of test compound, blank is equal to the luminescence activity in the presence of DMSO control and the total is signal induced by 50 μM linolenic acid as reference compound. Activation data for the test compound over a range of concentrations was plotted as percentage activation of the test compound (100%=maximum response). After correcting for background, EC50 values were determined. The EC50 is defined as the concentration of test compound which produces 50% of the maximal response and was quantified using the 4 parameter logistic equation to fit the data.
The human and mouse GPR120-mediated intracellular phosphorylated ERK assays were also established using CHO-K1 cells stably transfected with the short form of human or mouse GPR120 receptor. […]
For orientation: In Alpha technology, singlet oxygen from a donor bead excites a nearby acceptor bead.

The structures appear in SMILES notation.

Sequence of human GPR120 (Q5NUL3 whole entry): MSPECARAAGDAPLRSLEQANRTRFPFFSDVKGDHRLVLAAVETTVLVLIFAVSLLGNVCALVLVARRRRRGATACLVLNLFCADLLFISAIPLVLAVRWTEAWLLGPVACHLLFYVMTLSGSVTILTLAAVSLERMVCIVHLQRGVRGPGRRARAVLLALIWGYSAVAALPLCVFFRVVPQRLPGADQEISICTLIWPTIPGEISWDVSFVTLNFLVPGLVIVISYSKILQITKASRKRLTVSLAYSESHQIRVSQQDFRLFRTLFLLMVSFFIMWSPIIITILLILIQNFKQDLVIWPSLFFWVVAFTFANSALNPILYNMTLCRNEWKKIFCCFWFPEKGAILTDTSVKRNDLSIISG

Take `O=C(O)COCC12CCC(OCc3ccccc3Oc3ccccc3)(CC1)C2` [Example 72, 2-((4-(2-Phenoxybenzyloxy)bicyclo[2.2.1]heptan-1-yl)methoxy)acetic acid]: the EC50 was determined as 1.12 µM.
As for `O=C(O)CCCC12CCC(OCc3ccc(Cl)c(Cl)c3)(CC1)C2` [Example 11, 4-(4-(3,4-dichlorobenzyl-oxy)bicyclo[2.2.1]heptan-1-yl) butanoic acid], the concentration giving a half-maximal response (EC50) turned out to be 1.09 µM.
The same measure for `O=C(O)CCCC12CCC(OCc3cccc(-c4cccs4)c3)(CC1)C2` [Example 61, 4-(4-(3-(thiophen-2-yl)benzyloxy)bicyclo[2.2.1]heptan-1-yl) butanoic acid]: 0.75 µM; for `O=C(O)CCCC12CCC(OCc3cc(F)cc(OC(F)(F)F)c3)(CC1)C2` [Example 28, 4-(4-(3-fluoro-5-(trifluorometh-oxy)benzyloxy)bicyclo[2.2.1]heptan-1-yl) butanoic acid]: 0.39 µM; for `O=C(O)CCCC12CCC(OCc3csc4ccc(Cl)cc34)(CC1)C2` [Example 30, 4-(4-((5-chlorobenzo[b]thiophen-3-yl)methoxy)bicyclo[2.2.1]heptan-1-yl) butanoic acid]: 0.85 µM.
Regarding `O=C(O)CCCC12CCC(OCc3cc(Cl)ccc3F)(CC1)C2` [Example 52, 4-(4-(5-chloro-2-fluorobenzyl-oxy)bicyclo [2.2.1]heptan-1-yl)butanoic acid], the half-maximal effective concentration (EC50) was found to be 0.69 µM.
With `O=C(O)CCC12CCC(OCCc3cccc4ccccc34)(CC1)C2` [Example 87, 3-(4-(2-(naphthalen-1-yl)ethoxy)bicyclo [2.2.1]heptan-1-yl) propanoic acid], the half-maximal effective concentration (EC50) is 1.31 µM.
As to `NC(=O)CNC(=O)CCCC12CCC(OCc3cc(F)cc(Oc4ccccc4)c3)(CC1)C2` [Example 98, N-(2-Amino-2-oxoethyl)-4-(4-((3-fluoro-5-phenoxybenzyl)oxy)bicyclo[2.2.1]heptan-1-yl)butanamide], the half-maximal effective concentration (EC50) is 2.68 µM.
Turning to `COc1ccc(Br)cc1COC12CCC(CCCC(=O)O)(CC1)C2` [Example 60, 4-(4-(5-bromo-2-methoxybenzyl-oxy)bicyclo [2.2.1]heptan-1-yl)butanoic acid], the concentration giving a half-maximal response (EC50) came to 4.15 µM.
With `COc1ccc(COC23CCC(CCCC(=O)O)(CC2)C3)c(F)c1` [Example 42, 4-(4-(2-fluoro-4-methoxybenzyl-oxy)bicyclo[2.2.1]heptan-1-yl) butanoic acid], the half-maximal effective concentration (EC50) came to 9.1 µM.
In the case of `O=C(O)CCC12CCC(OCCc3cccc(Oc4ccccc4)c3)(CC1)C2` [Example 88, 3-(4-(3-phenoxyphenethoxy)bicyclo[2.2.1]heptan-1-yl)propanoic acid], the half-maximal effective concentration (EC50) was determined as 2.64 µM.
`COc1cc(Cl)cc(COC23CCC(CCCC(=O)O)(CC2)C3)c1` [Example 31, 4-(4-(3-chloro-5-methoxybenzyl-oxy)bicyclo [2.2.1]heptan-1-yl)butanoic acid]: the EC50 was found to be 0.9 µM.
For `O=C(O)CCC12CCC(OCc3cc(F)cc(Oc4ccccc4)c3)(CC1)C2` [Example 90, 3-(4-((3-fluoro-5-phenoxybenzyl)oxy)bicyclo [2.2.1]heptan-1-yl) propanoic acid], the EC50 was 1.22 µM.
The result for `COc1ccc(COC23CCC(CCCC(=O)O)(CC2)C3)c(OC(F)(F)F)c1` [Example 43, 4-(4-(4-methoxy-2-(trifluoromethoxy)benzyloxy)bicyclo[2.2.1]heptan-1-yl) butanoic acid] reads 0.32 µM.
On to `O=C(O)CCCC12CCC(OCc3cccc(C(F)(F)F)c3F)(CC1)C2` [Example 46, 4-(4-(2-fluoro-3-(trifluoromethyl)benzyloxy)bicyclo[2.2.1]heptan-1-yl) butanoic acid], for which the concentration for a half-maximal effect (EC50) was 0.29 µM.
The same measure for `Cc1ccc(COC23CCC(CCCC(=O)O)(CC2)C3)cc1F` [Example 12, 4-(4-(3-fluoro-4-methylbenzyl-oxy)bicyclo [2.2.1]heptan-1-yl)butanoic acid]: 6.72 µM.
The result for `O=C(O)CCCC12CCC(OCc3cc(Cl)cc(Cl)c3)(CC1)C2` [Example 4, 4-(4-(3,5-dichloro-benzyloxy)bicyclo[2.2.1]heptan-1-yl) butanoic acid] reads 0.65 µM.
